“And” between values parts separate entries of the source, which are not always exact repeats. Identical values can stand only once. Inconclusive results and toxic doses are left out.
System: L1210 leukemia ip in BDF1 mice, survival T/C
Assay: NCI In Vivo Anticancer Drug Screen. Data for tumor model L1210 Leukemia (intraperitoneal) in B6D2F1 (BDF1) mice
Details: endpoint: mean survival time, higher = longer survival
Summary of the method: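 Tumor was transplanted into mice, which were then dosed with test compound or vehicle alone. Survival was recorded for each group, and the treated figure was expressed relative to the control figure.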

In the case of `CC[C@@]1(O)C(=O)OCc2c1cc1n(c2=O)Cc2cc3ccccc3nc2-1`, the T/C (dose: 0.05 mg/kg/injection, schedule: Q01DX Z (ip), vehicle: carboxymethylcellulose (CMC)) is reported as 94 % of control, the T/C (dose: 0.1 mg/kg/injection, schedule: Q01DX Z (ip), vehicle: carboxymethylcellulose (CMC)) is reported as 97 % of control and the T/C (dose: 0.12 mg/kg/injection, schedule: Q01DX009 (ip), vehicle: saline) is reported as 105 % of control and 108 % of control. The T/C (dose: 0.12 mg/kg/injection, schedule: Q#A X Z (ip), vehicle: saline) was 122 % of control, the T/C (dose: 0.13 mg/kg/injection, schedule: Q01DX Z (ip), vehicle: water) was 105 % of control and the T/C (dose: 0.2 mg/kg/injection, schedule: Q01DX Z (ip), vehicle: saline) was 118 % of control. For the same compound, the T/C (dose: 0.22 mg/kg/injection, schedule: Q01DX Z (ip), vehicle: water) was 103 % of control, the T/C (dose: 0.22 mg/kg/injection, schedule: Q03DX Z (ip), vehicle: saline) was 103 % of control and the T/C (dose: 0.25 mg/kg/injection, schedule: Q01DX006 (iv), vehicle: saline) was 103 % of control. For the same compound, the T/C (dose: 0.25 mg/kg/injection, schedule: Q01DX009 (ip), vehicle: saline) was 94 % of control, the T/C (dose: 0.25 mg/kg/injection, schedule: Q01DX Z (im), vehicle: saline) was 108 % of control and the T/C (dose: 0.25 mg/kg/injection, schedule: Q01DX Z (sc), vehicle: saline) was 113 % of control. For the same compound, the T/C (dose: 0.25 mg/kg/injection, schedule: Q## X Z (ip), vehicle: saline) was 106 % of control, the T/C (dose: 0.25 mg/kg/injection, schedule: Q#A X Z (ip), vehicle: saline) was 154 % of control and the T/C (dose: 0.33 mg/kg/injection, schedule: Q03DX Z (ip), vehicle: saline) was 111 % of control. The T/C (dose: 0.36 mg/kg/injection, schedule: Q01DX Z (ip), vehicle: water) was 116 % of control, the T/C (dose: 0.5 mg/kg/injection, schedule: Q01DX001 (ip), vehicle: saline) was 107 % of control and the T/C (dose: 0.5 mg/kg/injection, schedule: Q01DX006 (iv), vehicle: saline) was 116 % of control. The T/C (dose: 0.5 mg/kg/injection, schedule: Q01DX009 (ip), vehicle: saline) was 111 % of control, the T/C (dose: 0.5 mg/kg/injection, schedule: Q01DX Z (ip), vehicle: carboxymethylcellulose (CMC)) was 163 % of control and the T/C (dose: 0.5 mg/kg/injection, schedule: Q01DX Z (oral), vehicle: saline) was 120 % of control. The T/C (dose: 0.5 mg/kg/injection, schedule: Q01DX Z (sc), vehicle: saline) was 118 % of control, the T/C (dose: 0.5 mg/kg/injection, schedule: Q03DX Z (ip), vehicle: saline) was 108 % of control and the T/C (dose: 0.6 mg/kg/injection, schedule: Q01DX Z (ip), vehicle: water) was 156 % of control. The T/C (dose: 0.75 mg/kg/injection, schedule: Q01DX009 (ip), vehicle: saline) was 94 % of control and 95 % of control, the T/C (dose: 0.75 mg/kg/injection, schedule: Q03DX Z (ip), vehicle: saline) was 114 % of control and the T/C (dose: 1.0 mg/kg/injection, schedule: Q01DX001 (ip), vehicle: saline) was 107 % of control. For the same compound, the T/C (dose: 1.0 mg/kg/injection, schedule: Q01DX006 (iv), vehicle: saline) was 114 % of control, the T/C (dose: 1.0 mg/kg/injection, schedule: Q01DX009 (ip), vehicle: saline) was 97 % of control and the T/C (dose: 1.0 mg/kg/injection, schedule: Q01DX010 (ip), vehicle: saline) was 153 % of control. The T/C (dose: 1.0 mg/kg/injection, schedule: Q01DX010 (iv), vehicle: saline) was 117 % of control, the T/C (dose: 1.0 mg/kg/injection, schedule: Q01DX Z (ip), vehicle: carboxymethylcellulose (CMC)) was 166 % of control and the T/C (dose: 1.0 mg/kg/injection, schedule: Q01DX Z (ip), vehicle: saline) was 158 % of control. For the same compound, the T/C (dose: 1.0 mg/kg/injection, schedule: Q01DX Z (ip), vehicle: water) was 171 % of control, the T/C (dose: 1.0 mg/kg/injection, schedule: Q01DX Z (oral), vehicle: saline) was 109 % of control and the T/C (dose: 1.0 mg/kg/injection, schedule: Q#A X Z (ip), vehicle: saline) was 185 % of control. For the same compound, the T/C (dose: 1.25 mg/kg/injection, schedule: Q04DX003 (ip), vehicle: Klucel (hydroxypropylcellulose) (HPC)) was 113 % of control, the T/C (dose: 1.5 mg/kg/injection, schedule: Q03DX Z (ip), vehicle: saline) was 120 % of control and the T/C (dose: 1.5 mg/kg/injection, schedule: Q#A X Z (ip), vehicle: saline) was 104 % of control. The T/C (dose: 1.6 mg/kg/injection, schedule: Q01DX Z (ip), vehicle: saline) was 196 % of control, the T/C (dose: 2.0 mg/kg/injection, schedule: Q01DX001 (ip), vehicle: saline) was 100 % of control and 124 % of control and the T/C (dose: 2.0 mg/kg/injection, schedule: Q01DX006 (iv), vehicle: saline) was 109 % of control. The T/C (dose: 2.0 mg/kg/injection, schedule: Q01DX010 (ip), vehicle: saline) was 93 % of control, the T/C (dose: 2.0 mg/kg/injection, schedule: Q01DX Z (im), vehicle: saline) was 94 % of control and 118 % of control and the T/C (dose: 2.0 mg/kg/injection, schedule: Q01DX Z (ip), vehicle: saline) was 122 % of control. The T/C (dose: 2.0 mg/kg/injection, schedule: Q01DX Z (oral), vehicle: saline) was 120 % of control, the T/C (dose: 2.0 mg/kg/injection, schedule: Q07DX Z (ip), vehicle: saline) was 124 % of control and the T/C (dose: 2.0 mg/kg/injection, schedule: Q## X Z (ip), vehicle: saline) was 98 % of control. For the same compound, the T/C (dose: 2.25 mg/kg/injection, schedule: Q#A X Z (ip), vehicle: saline) was 93 % of control, the T/C (dose: 2.5 mg/kg/injection, schedule: Q01DX001 (ip), vehicle: saline) was 116 % of control and 202 % of control and the T/C (dose: 3.0 mg/kg/injection, schedule: Q01DX006 (iv), vehicle: saline) was 120 % of control. For the same compound, the T/C (dose: 3.0 mg/kg/injection, schedule: Q01DX Z (oral), vehicle: saline) was 120 % of control, the T/C (dose: 3.0 mg/kg/injection, schedule: Q03DX Z (ip), vehicle: saline) was 155 % of control and the T/C (dose: 3.2 mg/kg/injection, schedule: Q01DX Z (ip), vehicle: saline) was 121 % of control. The T/C (dose: 4.0 mg/kg/injection, schedule: Q01DX001 (ip), vehicle: saline) was 105 % of control, the T/C (dose: 4.0 mg/kg/injection, schedule: Q01DX010 (iv), vehicle: saline) was 108 % of control and the T/C (dose: 4.0 mg/kg/injection, schedule: Q01DX Z (ip), vehicle: saline) was 97 % of control. For the same compound, the T/C (dose: 4.0 mg/kg/injection, schedule: Q01DX Z (oral), vehicle: saline) was 118 % of control and 119 % of control, the T/C (dose: 4.5 mg/kg/injection, schedule: Q01DX006 (iv), vehicle: saline) was 122 % of control and the T/C (dose: 4.5 mg/kg/injection, schedule: Q01DX Z (im), vehicle: saline) was 117 % of control. For the same compound, the T/C (dose: 4.5 mg/kg/injection, schedule: Q01DX Z (sc), vehicle: saline) was 175 % of control, the T/C (dose: 4.8 mg/kg/injection, schedule: Q01DX Z (ip), vehicle: saline) was 95 % of control and the T/C (dose: 5.0 mg/kg/injection, schedule: Q04DX003 (ip), vehicle: Klucel (hydroxypropylcellulose) (HPC)) was 96 % of control. The T/C (dose: 6.0 mg/kg/injection, schedule: Q03DX Z (ip), vehicle: saline) was 152 % of control, the T/C (dose: 6.5 mg/kg/injection, schedule: Q01DX006 (iv), vehicle: saline) was 170 % of control and the T/C (dose: 6.5 mg/kg/injection, schedule: Q01DX Z (sc), vehicle: saline) was 157 % of control. For the same compound, the T/C (dose: 8.0 mg/kg/injection, schedule: Q01DX001 (ip), vehicle: saline) was 109 % of control, the T/C (dose: 8.6 mg/kg/injection, schedule: Q03DX Z (ip), vehicle: saline) was 194 % of control and the T/C (dose: 9.5 mg/kg/injection, schedule: Q01DX006 (iv), vehicle: saline) was 157 % of control. The T/C (dose: 10.0 mg/kg/injection, schedule: Q04DX003 (ip), vehicle: Klucel (hydroxypropylcellulose) (HPC)) was 110 % of control, the T/C (dose: 13.0 mg/kg/injection, schedule: Q03DX Z (ip), vehicle: saline) was 124 % of control and the T/C (dose: 16.0 mg/kg/injection, schedule: Q07DX Z (ip), vehicle: saline) was 158 % of control and 213 % of control. For the same compound, the T/C (dose: 19.0 mg/kg/injection, schedule: Q03DX Z (ip), vehicle: saline) was 93 % of control, the T/C (dose: 20.0 mg/kg/injection, schedule: Q04DX003 (ip), vehicle: Klucel (hydroxypropylcellulose) (HPC)) was 117 % of control and the T/C (dose: 24.0 mg/kg/injection, schedule: Q01DX001 (ip), vehicle: saline) was 111 % of control. The T/C (dose: 24.0 mg/kg/injection, schedule: Q07DX Z (ip), vehicle: saline) was 158 % of control, the T/C (dose: 35.0 mg/kg/injection, schedule: Q01DX001 (ip), vehicle: saline) was 122 % of control and the T/C (dose: 50.0 mg/kg/injection, schedule: Q07DX Z (ip), vehicle: saline) was 100 % of control. For the same compound, the T/C (dose: 125.0 micrograms/kg/injection, schedule: Q01DX001 (ip), vehicle: saline) was 103 % of control, the T/C (dose: 125.0 micrograms/kg/injection, schedule: Q01DX Z (ip), vehicle: saline) was 107 % of control and the T/C (dose: 156.0 micrograms/kg/injection, schedule: Q01DX001 (ip), vehicle: saline) was 107 % of control. The T/C (dose: 187.0 micrograms/kg/injection, schedule: Q01DX001 (ip), vehicle: saline) was 103 % of control, the T/C (dose: 250.0 micrograms/kg/injection, schedule: Q01DX Z (ip), vehicle: saline) was 101 % of control and the T/C (dose: 281.0 micrograms/kg/injection, schedule: Q01DX001 (ip), vehicle: saline) was 105 % of control. The T/C (dose: 310.0 micrograms/kg/injection, schedule: Q01DX001 (ip), vehicle: saline) was 101 % of control, the T/C (dose: 421.0 micrograms/kg/injection, schedule: Q01DX001 (ip), vehicle: saline) was 116 % of control and the T/C (dose: 500.0 micrograms/kg/injection, schedule: Q01DX Z (ip), vehicle: saline) was 107 % of control. For the same compound, the T/C (dose: 620.0 micrograms/kg/injection, schedule: Q01DX001 (ip), vehicle: saline) was 107 % of control, the T/C (dose: 1250.0 micrograms/kg/injection, schedule: Q01DX001 (ip), vehicle: saline) was 110 % of control and the T/C (dose: 2000.0 micrograms/kg/injection, schedule: Q01DX Z (ip), vehicle: saline) was 222 % of control. For the same compound, the T/C (dose: 4000.0 micrograms/kg/injection, schedule: Q01DX Z (ip), vehicle: saline) was 205 % of control.

From PubChem BioAssay AID248 (DTP/NCI, 2004)
